PubChem BioAssay AID449750 (Broad Institute, 2010)
Active and inactive are the calls of the source. No rule for the calls is given here.

experiment: non-covalent RecA intein splicing inhibitors, dose response, biochemical, cell-free, fluorescence, secondary screen (AID 449750)

| Structure (SMILES) | AC50 |
| --- | --- |
| O=C(O)CC1S/C(=N/N=C/c2ccc(-c3ccc(Cl)cc3[N+](=O)[O-])o2)NC1=O (stereo not given) | 4.67 µM |
| COCc1[nH]nc2c1C(c1ccc(OC)c(OC)c1)C(C#N)=C(N)O2 (stereo not given) | > 38 µM (inactive) |
| CC(=O)NC1C(=O)N(CCN2CCOCC2)c2ccc(Cl)cc21 (stereo not given) | 34.1 µM |
| COc1ccc(OCc2cc(C(=O)NC3CCOC(C)(C)C3)no2)c2ccccc12 (stereo not given) | 26 µM |
| CCOC(=O)c1cc(C)sc1NC(=O)CSC1=NCCS1 | 19.6 µM |
| COC(=O)c1nc(NC(=O)c2ccc(C(C)(C)C)cc2)n[nH]1 | > 38 µM (inactive) |
| COc1ccc(COC(=O)N/N=C(\C)CC(=O)Nc2ccc(Cl)cn2)cc1 | > 38 µM (inactive) |
| CCc1ccc(S(=O)(=O)Nc2cc(SCC(=O)O)c(O)c3ccccc23)cc1 | 3.06 µM |
| O=C(NC1C(=O)NNC1c1ccccc1)c1ccccc1 (stereo not given) | > 38 µM (inactive) |
| CCOC(=O)c1c(NC(=O)CSc2nnc(-c3c[nH]c4ccccc34)n2CCOC)sc2c1CCCC2 | > 38 µM (inactive) |
| O=C(CCl)Nc1c(C(=O)Nc2ccc3c(c2)OCCO3)oc2ccccc12 | 4.49 µM |
| Cc1ccc(-c2nnc(Sc3nc4ccccc4o3)c3ccccc23)cc1 | 4.13 µM |
| CC(C)(C)c1cc(C(=O)CCN2CCOCC2)cc(C(C)(C)C)c1O | 12.1 µM |
| Cc1ccc(C2CC(c3cccs3)=NN2C(=O)CCl)cc1 (stereo not given) | 1.68 µM |
| Cc1nn(CCc2nn[nH]n2)c2nc(-c3ccc(C4CCCCC4)cc3)cc(C(F)(F)F)c12 | 24.6 µM |
| CCCCCCCCCCn1c2c(c(=N)c3c1CCC3)CCC2 | > 38 µM (inactive) |
| S=C1NCCC12C(=S)Nc1ccccc12 (stereo not given) | > 38 µM (inactive) |
| C=CCn1c(-c2cccnc2Cl)nc2ccccc21 | > 38 µM (inactive) |
| COCc1[nH]nc2c1C1(CCSCC1)C(C#N)=C(N)O2 | > 38 µM (inactive) |
| CCOC(=O)c1ccc(-n2[nH]c(-c3ccccc3)cc2=O)cc1 | 5.45 µM |
| CCCc1[nH][nH]c(=O)c1C(c1ccc(Br)cc1)C(C#N)C#N (stereo not given) | 32.2 µM |
| O=C1/C(=C/Nc2ccc3c(c2)OCO3)CCc2ccccc21 | 4 µM |
| Nc1nc(C(=O)N2CCOCC2)nn1C(=O)c1ccc(Cl)cc1 | > 38 µM (inactive) |
| CCOCC(=O)NCc1ccc2c(c1)cc(C)n2C | > 38 µM (inactive) |
| O=C(CSc1nnc(Cc2ccccc2)o1)Nc1cccc(F)c1 | > 38 µM (inactive) |
| CCc1ccc(NC(=O)CSc2ccc(-c3sc(C)nc3C)nn2)cc1 | > 38 µM (inactive) |
| CCCCC(O)(CCCC)C(=O)NN(C(=O)CCl)c1ccccc1 | 6.32 µM |

| Structure (SMILES) | AC50 |
| --- | --- |
| CC(OC(=O)c1cc(O)c2ccccc2c1O)C(=O)Nc1ccc(C(N)=O)cc1 (stereo not given) | 10.1 µM |
| Cc1ccc(-c2noc(-c3ccccc3C(=O)N3CCOCC3)n2)cc1 | > 38 µM (inactive) |
| O=[N+]([O-])/C(C(Cl)=C(Cl)Cl)=C(/Sc1ccccc1)N1CCCCC1 | > 38 µM (inactive) |
| O=C1C(=O)c2ccccc2C([O-])=C1[n+]1ccccc1 | 28.5 µM |
| C/C(=N\NC(=O)c1ccncc1)c1cc2ccccc2oc1=O | > 38 µM (inactive) |
| COc1cc(NC2CCCCC2O)c2nc(-c3ccc(Cl)cc3)ccc2c1 (stereo not given) | 9.05 µM |
| COc1c(O)ccc2c1CN1CCc3cc4c(cc3C1C2)OCO4 (stereo not given) | > 38 µM (inactive) |
| C=COC(=O)CSc1snc(SCC(=O)OC)c1C#N | > 38 µM (inactive) |
| O=S(=O)(Nc1ccc(O)c2ccccc12)c1ccc(F)cc1 | 0.377 µM |
| COc1ccc(C(=O)N/N=C\c2coc3ccc(Cl)cc3c2=O)cc1 | > 38 µM (inactive) |
| CN1N=C(C(C)(C)C)CC1=O | > 38 µM (inactive) |
| COc1ccc(Nc2ccc3c(c2)=NC2(CCCCC2)[N+]=3[O-])cc1 | 15 µM |
| CC(=O)n1cc(N(C(=O)CCl)c2ccc([N+](=O)[O-])cc2)c2ccccc21 | 4.74 µM |
| Cc1c(Cl)cccc1NC(=S)/C(=C(\[O-])c1ccc(Cl)s1)[n+]1ccccc1 | > 38 µM (inactive) |
| CN1CCN(C(c2ccc(C(F)(F)F)cc2)c2cc(Cl)c3cccnc3c2O)CC1 (stereo not given) | > 38 µM (inactive) |
| CN(C)c1ccc(C(=O)n2nnc3ccccc32)cc1 | > 38 µM (inactive) |
| CC(C)CCn1c(Sc2nc3ccccc3o2)nc2c1c(=O)[nH]c(=O)n2C | 5.08 µM |
| CCCc1nnc(NC(=O)c2nc(S(=O)(=O)Cc3cccc(C)c3)ncc2Cl)s1 | > 38 µM (inactive) |
| O=C1C=C(Nc2ccccc2O)c2ccccc2C1=O | > 38 µM (inactive) |
| COc1ccc(N(C(=O)CCl)C(C(=O)NC2CCCCC2)c2cccnc2)cc1 (stereo not given) | 3.87 µM |
| CN(C)C(=O)c1ccc2c(c1[N+](=O)[O-])C(=O)c1ccccc1C2=O | > 12 µM (inactive) |
| Cc1nnc(NC(=O)c2nc(S(=O)(=O)Cc3ccccc3C)ncc2Cl)s1 | > 38 µM (inactive) |
| Cc1ccc(-n2nc(C)c3c2OC(N)=C(C#N)C3c2cccs2)cc1 (stereo not given) | 21.1 µM |
| Cc1ccccc1N(Cc1cc(=O)[nH]c2ccccc12)C(=O)CCl | 8.32 µM |
| CCC(C)NC(=O)c1c(N)n(Cc2ccc3c(c2)OCO3)c2nc3ccccc3nc12 (stereo not given) | 26.7 µM |
| Cn1cnc([N+](=O)[O-])c1Oc1cccc2ccccc12 | > 38 µM (inactive) |
| C/C(CC(=O)Nc1ccccn1)=N\NC(=O)c1ccncc1 | 28.8 µM |

| Structure (SMILES) | AC50 |
| --- | --- |
| O=C1/C(=C\c2cc([N+](=O)[O-])ccc2O)SC(=S)N1Cc1ccc(Cl)cc1 | 13.8 µM |
| CCCCOc1ccc(C2C3CN(C(=O)OCC)CC=C3C(C#N)=C(N)C2(C#N)C#N)cc1OC (stereo not given) | > 38 µM (inactive) |
| COc1ccc(N(C(=O)c2ccco2)S(=O)(=O)c2cccs2)cc1 | > 38 µM (inactive) |
| COc1ccc(CN2CCNC(=O)C2CC(=O)N(C)Cc2ccncn2)c(OC)c1 (stereo not given) | > 38 µM (inactive) |
| N#C/C(=C\c1cc(Cl)c(OCc2ccc(Cl)cc2)c(Cl)c1)C(N)=O | 9.11 µM |
| O=S(=O)(Nc1c(O)ccc2ccccc12)c1cccc2ccccc12 | 26.8 µM |
| CC(=O)n1cc(N(C(=O)CCl)c2ccccc2)c2ccccc21 | 3.56 µM |
| O=C(NCc1ccccc1)c1nc(S(=O)(=O)Cc2ccccc2)ncc1Cl | > 38 µM (inactive) |
| O=[N+]([O-])c1cc(Br)c(Nc2ccccc2)c([N+](=O)[O-])c1 | 7.02 µM |
| CC(C)(C)c1[nH]nc2c1C(c1ccoc1)C(C#N)=C(N)O2 (stereo not given) | > 38 µM (inactive) |
| Cc1cc(O)c(C(C)C)cc1N=Cc1ccccc1O | 5.1 µM |
| O=c1[nH]c(Nc2ccccc2Cl)cc2ccccc12 | 15.5 µM |
| CC(C)(C)c1csc(NC(=O)c2c(F)c(F)c(F)c(F)c2F)n1 | 16.3 µM |
| CCC(CC)C(=O)NCc1ccc2c(c1)cc(C)n2C | > 38 µM (inactive) |
| COc1ccc(/C=C/C(=O)c2ccncc2)c2ccccc12 | 18.6 µM |
| Cc1ccccc1CS(=O)(=O)c1nnc([C@H](CC(C)C)NC(=O)OC(C)(C)C)o1 | > 38 µM (inactive) |
| CC(C)(C)c1cc[n+](C2=C([O-])c3ccccc3C(=O)/C2=N\S(=O)(=O)c2ccccc2)cc1 | 9.74 µM |
| COc1cccc(N2CC(C(=O)Nc3nnc(SCC(=O)c4ccccc4)s3)CC2=O)c1 (stereo not given) | > 38 µM (inactive) |
| CNC(=O)/C(C#N)=C/c1c(N(Cc2ccccc2)Cc2ccccc2)nc2c(C)cccn2c1=O | 13 µM |
| COc1cccc(NC(=O)c2nc(S(C)(=O)=O)ncc2Cl)c1 | > 38 µM (inactive) |
| CC1=NNC(=O)C1C(c1ccc(F)cc1)C(C#N)C#N (stereo not given) | > 38 µM (inactive) |
| Cc1cc(C)c(S(=O)(=O)Nc2cc(SCC(=O)O)c(O)c3ccccc23)cc1C | 2.58 µM |
| Cc1cc(C(=O)Cn2ncc(Cl)c(Cl)c2=O)c(C)n1CC(F)(F)F | > 38 µM (inactive) |
| CC(C)CCn1c(N)c(C(=O)NCc2cccs2)c2nc3ccccc3nc21 | > 38 µM (inactive) |
| COc1ccc(C(=O)Nc2ccc(O)c3ccccc23)cc1OC | > 38 µM (inactive) |
| Cc1ccc(O)c(N=CC2=C(O)c3ccccc3C2=O)c1 | 21.5 µM |
| Cc1[nH]n(-c2ccccc2)c(=O)c1/C=N\NC(=O)C1COc2ccccc2O1 (stereo not given) | 8.94 µM |

| Structure (SMILES) | AC50 |
| --- | --- |
| CCc1cccc(CC)c1NC(=O)/C(C#N)=C/c1ccccc1C(F)(F)F | 11.6 µM |
| COC1(OC)C(/C=C/c2ccc(C)cc2)C(C#N)(C#N)C1(OC)OC (stereo not given) | > 38 µM (inactive) |
| CC1(S(=O)(=O)O)CC(=O)c2ccccc2C1=O (stereo not given) | 6.36 µM |
| CC(=O)NCCn1c(SCC(=O)NCc2ccco2)nc2ccccc2c1=O | > 38 µM (inactive) |
| O=C(Nc1ccc(F)cc1)c1nn(-c2ccccc2)c(=O)cc1Cl | 22.1 µM |
| O=C(c1ccco1)N1CCN(c2nc(C3CC3)nc3sc4c(c23)CCCC4)CC1 | 12.7 µM |
| Cc1[nH]n(-c2ccccc2)c(=O)c1C(c1ccccc1[N+](=O)[O-])C(C#N)C#N (stereo not given) | 9.48 µM |
| Cc1cc(C)n2nc(CNS(=O)(=O)c3c(F)c(F)c(F)c(F)c3F)nc2n1 | > 38 µM (inactive) |
| CC(=O)N(C)Cc1ccc(C(=O)CCl)cc1 | > 38 µM (inactive) |
| CCOC(=O)c1c(OCC)[nH]c2c1cc(O)c1ccccc12 | 32.1 µM |
| Cc1cc(C)cc(S(=O)(=O)c2cnc3ccccc3n2)c1 | > 38 µM (inactive) |
| COC(=O)c1ccccc1Sc1ncnc2onc(C)c12 | > 38 µM (inactive) |
| CCOC(=O)c1c(C)sc2c1N(C(=O)CCl)c1cc(Cl)ccc1S2 | 3.37 µM |
| CCOc1cc(C(c2c(C)[nH][nH]c2=O)c2c(C)[nH][nH]c2=O)cc(Cl)c1O | > 38 µM (inactive) |
| N=c1c2c(-c3ccccc3)c(-c3ccccc3)n(Cc3ccco3)c2ncn1Cc1ccccc1 | 5.8 µM |
| CC(NC(=O)COC(=O)c1cc(NS(=O)(=O)c2ccc(Cl)c([N+](=O)[O-])c2)ccc1O)C1CC2CCC1C2 (stereo not given) | 1.67 µM |
| O=c1c(Cl)c(NCCCO)cnn1-c1nc2ccccc2[nH]1 | > 38 µM (inactive) |
| CC1=NN(c2ccccc2)C(=O)/C1=C\c1cn(CCC#N)nc1-c1ccc(Cl)cc1 | > 38 µM (inactive) |
| C[C@@H]1CC=C[C@H]2[C@H]1C(=O)N(Cc1ccccc1)[C@H]2c1ccc(F)c(Br)c1 | 17.9 µM |
| O=C(O)COc1ccc(/C=C2/SC(=S)N(Cc3ccccc3)C2=O)cc1 | 31.6 µM |
| Cc1cccc(N2CC(C(=O)OCC(=O)c3ccc(OC(=O)c4cccs4)cc3)CC2=O)c1C (stereo not given) | > 38 µM (inactive) |
| COc1ccc(-c2cc(C(F)(F)F)nc(S(=O)(=O)CCCC(=O)Nc3cccc(O)c3)n2)cc1OC | > 38 µM (inactive) |
| O=S(=O)(CCSc1nc2ccccc2s1)c1nc2ccccc2s1 | 27.3 µM |
| CCc1nnc(NC(=O)c2nc(S(=O)(=O)Cc3ccc(C)cc3)ncc2Cl)s1 | > 38 µM (inactive) |
